Where a name gives a salt, the structure may show the parent alone.
Test: Heating of the active substance at 150° C. for 15 minutes (HPLC, DSC, TGA, HSM, spectroscopic investigations)
Format: physicochemical
Experimental: Physical Stability Studies on the Active Substances and the Excipients Used in the Formulation of the Tablets.
5.0 mg carefully weighed of every excipient/substance was placed in aluminium pans, closed with a suitable press and analyzed by means of DSC (Perkin Elmer 7) under nitrogen flow; the analysis was also carried out on the thermally-treated powders. The operating conditions utilised were the following: initial temperature (Tstart)=50° C.; final temperature (Tend) 250° C.; gradient=10° C./min.
The determination of the weight variations of the active substances and excipients, of the powder mixtures and the powders obtained by crushing the tablets was conducted through TGA 7 of Perkin Elmer, in nitrogen atmosphere, using the same temperatures and the same heating gradients used in the thermal heat treatments.

## COc1ccc([C@@H]2Sc3ccccc3N(CCN(C)C)C(=O)[C@@H]2OC(C)=O)cc1 [Diltiazem hydrochloride]
  physical or chemical modification after heating: did not involve any physical or chemical modification

From patent US9078825B2, “Method for the production of bioadhesive compact matrices” (Università degli Studi di Genova, priority 2008, dated 2015)
